The record followed here is PubChem BioAssay (NCI).

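Dose response: 5 concentrations. Exposure: 48 h. Format: 96-well plates. Endpoint: linear interpolation; highest concentration if not reached. TGI is the concentration that stops growth completely.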

Some test systems named below: CCRF-CEM leukemia; HL-60(TB) leukemia; HOP-92 NSCLC; IGROV1 ovarian; K-562 leukemia; KM12 colon; MALME-3M melanoma; MCF7 breast; NCI-H460 lung; NCI-H522 lung; NCI/ADR-RES ovarian; OVCAR-3 ovarian; OVCAR-8 ovarian; RPMI-8226 leukemia; SF-268 CNS; SW-620 colon; T-47D breast; EKVX NSCLC; OVCAR-4 ovarian; SF-295 CNS.
Experiment in all cases: inhibition of tumour cell growth, NCI panel, 48 h

As to `CCCCCC(=O)CCCCCCCC(O)CC(=O)OCC` (stereo unspecified), the TGI in the assay with CCRF-CEM leukemia, in the assay on HL-60(TB) leukemia, with HOP-92 NSCLC, in the assay with IGROV1 ovarian, in the assay on K-562 leukemia and with KM12 colon was above 100 µM in each case. For the same compound, the TGI in the assay on MALME-3M melanoma, in the assay with MCF7 breast, in the assay with NCI-H460 lung, in the assay with NCI-H522 lung, in the assay on NCI/ADR-RES ovarian and in the assay with OVCAR-3 ovarian was above 100 µM each time. The TGI in the assay with OVCAR-8 ovarian, in the assay on RPMI-8226 leukemia, in the assay with SF-268 CNS, in the assay with SW-620 colon and with T-47D breast was above 100 µM each time.
`COc1ccc2[nH]c3c(c2c1)CC(=S)N1CCCC(CC3=O)C1` (stereo unspecified): the TGI in the assay with CCRF-CEM leukemia, in the assay with EKVX NSCLC, in the assay on HOP-92 NSCLC, with IGROV1 ovarian, in the assay with KM12 colon and in the assay with MALME-3M melanoma was above 100 µM each time. The TGI in the assay on MCF7 breast is above 100 µM; in the assay with NCI-H460 lung it was 92.6 µM; in the assay on NCI/ADR-RES ovarian it was above 100 µM; in the assay with OVCAR-3 ovarian, above 100 µM; in the assay with OVCAR-4 ovarian, above 100 µM; with OVCAR-8 ovarian, above 100 µM. For the same compound, the TGI with RPMI-8226 leukemia, in the assay with SF-268 CNS, in the assay on SF-295 CNS, with SW-620 colon and in the assay on T-47D breast was above 100 µM each time.
Take `CN1C(=O)c2ccccc2OC12C=Cc1ccc(O)cc1O2` (stereo unspecified): the TGI with CCRF-CEM leukemia is 72.8 µM; in the assay with EKVX NSCLC, 64.5 µM; in the assay on HL-60(TB) leukemia it was 58.5 µM; in the assay on HOP-92 NSCLC it was 80.9 µM; in the assay on IGROV1 ovarian, above 100 µM; in the assay with K-562 leukemia, above 100 µM. In addition, the TGI is 77.5 µM with KM12 colon; above 100 µM in the assay with MCF7 breast; 61.8 µM in the assay with NCI-H460 lung; above 100 µM in the assay with NCI-H522 lung; 40.4 µM in the assay on NCI/ADR-RES ovarian; 63.6 µM with OVCAR-3 ovarian. Moreover, the TGI with OVCAR-4 ovarian was 96.9 µM; in the assay with OVCAR-8 ovarian it was 37.4 µM; with RPMI-8226 leukemia it was above 100 µM; with SF-268 CNS, above 100 µM; in the assay on SF-295 CNS it was above 100 µM; with SW-620 colon it was above 100 µM. For the same compound, in the assay on T-47D breast, the TGI is 52.6 µM.
Take `O=C(O/C=C\OC1CCCC1(c1ccccc1)c1ccccc1)c1ccccc1` (stereo unspecified): the TGI is 5.89 µM in the assay with CCRF-CEM leukemia; 34.8 µM with EKVX NSCLC; 4.68 µM with HL-60(TB) leukemia; 4.97 µM in the assay with HOP-92 NSCLC; 9.37 µM in the assay with IGROV1 ovarian; above 36 µM in the assay with K-562 leukemia. Further, the TGI with KM12 colon worked out at 33.1 µM; with MCF7 breast, 6.67 µM; in the assay with NCI-H460 lung it was 88.8 µM; with NCI-H522 lung it was 43 µM; in the assay on NCI/ADR-RES ovarian, 8.99 µM; in the assay with OVCAR-3 ovarian, 21.3 µM. The TGI in the assay on OVCAR-4 ovarian stood at 9.8 µM; with OVCAR-8 ovarian, 12.1 µM; in the assay with RPMI-8226 leukemia, 6.44 µM; with SF-268 CNS it was 14.1 µM; in the assay with SF-295 CNS, 34.9 µM; in the assay on SW-620 colon, 11.3 µM. In the assay on T-47D breast, the TGI came to 7.42 µM.
For `Cc1nc2ccc(NC(=S)Nc3ccccc3)cc2c(=O)n1-c1ccccc1`, the TGI with EKVX NSCLC, with HL-60(TB) leukemia, in the assay with IGROV1 ovarian, with K-562 leukemia, in the assay on KM12 colon and in the assay with MALME-3M melanoma was above 100 µM each time. Also, the TGI in the assay on MCF7 breast, in the assay with NCI-H460 lung, with NCI-H522 lung, in the assay on NCI/ADR-RES ovarian, in the assay with OVCAR-3 ovarian and in the assay on OVCAR-4 ovarian was above 100 µM throughout. Moreover, the TGI in the assay on OVCAR-8 ovarian is above 100 µM; in the assay on RPMI-8226 leukemia, 94.6 µM; in the assay on SF-268 CNS, above 100 µM; with SF-295 CNS, above 100 µM; with SW-620 colon it was above 100 µM; with T-47D breast, above 100 µM.
For `COc1ccc2c(c1)C(=O)OCCC2`, the TGI in the assay on CCRF-CEM leukemia, with EKVX NSCLC, with HL-60(TB) leukemia, with HOP-92 NSCLC, with IGROV1 ovarian and with K-562 leukemia was above 100 µM each time. The TGI in the assay with KM12 colon, in the assay on MCF7 breast, with NCI-H460 lung, in the assay on NCI-H522 lung, in the assay with NCI/ADR-RES ovarian and in the assay on OVCAR-3 ovarian was above 100 µM in each case. The TGI with OVCAR-4 ovarian, in the assay with OVCAR-8 ovarian, in the assay on RPMI-8226 leukemia, with SF-268 CNS, in the assay on SF-295 CNS and in the assay with SW-620 colon was above 100 µM throughout. In addition, the TGI in the assay with T-47D breast was above 100 µM.
For the compound `CCOC(=O)c1nc2ccc(C(F)(F)F)cc2[nH]c1=O`, the TGI in the assay on CCRF-CEM leukemia, in the assay on HL-60(TB) leukemia, in the assay on HOP-92 NSCLC, in the assay on IGROV1 ovarian, in the assay with K-562 leukemia and with KM12 colon was above 100 µM in each case. Besides, the TGI in the assay with MCF7 breast, in the assay on NCI-H460 lung, with NCI/ADR-RES ovarian, in the assay with OVCAR-3 ovarian, in the assay on OVCAR-4 ovarian and in the assay on OVCAR-8 ovarian was above 100 µM in each case. Besides, the TGI in the assay with RPMI-8226 leukemia, in the assay with SF-268 CNS, in the assay on SF-295 CNS, in the assay on SW-620 colon and in the assay on T-47D breast was above 100 µM throughout.
